Kd and IC50 data for five compounds are collected here from patent publication US20240287138A1, “CYCLIC PEPTIDES FOR INHIBITING TNF RECEPTOR 1 ACTIVITY” (Merck Sharp & Dohme LLC, priority 2023, published 2024).

Numbered stars: 1 amine (or outer) side, 2 acyl side, 3 side chain; on linkers, the order of the positions; unused ones are H or OH. Bridge positions count the residues as written; N and C are the ends. Square brackets hold non-standard residues; d marks the D form. Peptide text beside a SMILES is read from it. Trp(βS-Me,7-OMe) = COc1cccc2c([C@H](C)[C@H](N)C(=O)O)c[nH]c12; Trp(1-CH2COOH) = N[C@@H](Cc1cn(CC(=O)O)c2ccccc12)C(=O)O; Phe(4-NHCONH2) = NC(=O)Nc1ccc(C[C@H](N)C(=O)O)cc1; Trp(7-CN) = N#Cc1cccc2c(C[C@H](N)C(=O)O)c[nH]c12; Trp(7-Cl) = N[C@@H](Cc1c[nH]c2c(Cl)cccc12)C(=O)O; Phe(4-CONH2) = NC(=O)c1ccc(C[C@H](N)C(=O)O)cc1; Phe(4-COOH) = N[C@@H](Cc1ccc(C(=O)O)cc1)C(=O)O; 4Pal(3S-Me) = C[C@@H](c1ccncc1)[C@H](N)C(=O)O; dPro(4S-NH2) = N[C@@H]1CN[C@@H](C(=O)O)C1; Pip(5R-OH) = O=C(O)[C@@H]1CC[C@@H](O)CN1; X1 = O=C([C@@H]1CC[C@H](N[*:1])C1)[*:2]; dPro(3S-OH) = O=C(O)[C@@H]1NCC[C@@H]1O; X68 = O=C([C@@H]1CSCCN1[*:1])[*:2]; Pip(4-aza) = O=C(O)[C@@H]1CNCCN1; 4Pal = N[C@@H](Cc1ccncc1)C(=O)O; NMeE = CN[C@@H](CCC(=O)O)C(=O)O; dHyp = O=C(O)[C@H]1C[C@H](O)CN1; X7 = CC[C@@H](C(=O)[*:1])[*:2]; Ahp(2) = CCCCC[C@H](N)C(=O)O; αMeS = C[C@](N)(CO)C(=O)O; Nle = CCCC[C@H](N)C(=O)O; Sar = CNCC(=O)O

For this experiment, the target named is T1, human soluble TNFR1 (sTNFR1) (Homo sapiens, UniProt P19438).
T1 construct: made in house; host or cells: Sf21 (baculovirus)
T1 sequence (P19438 with tags, fused parts or gaps): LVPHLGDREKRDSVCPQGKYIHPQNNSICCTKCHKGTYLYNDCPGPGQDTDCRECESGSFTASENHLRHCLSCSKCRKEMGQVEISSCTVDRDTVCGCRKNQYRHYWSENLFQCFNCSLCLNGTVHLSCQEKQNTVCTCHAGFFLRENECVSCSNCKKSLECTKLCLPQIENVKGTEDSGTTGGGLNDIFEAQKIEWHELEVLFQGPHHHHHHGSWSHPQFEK
The experiment can be described thus: Human sTNFR1-peptide displacement assay (LanthaScreen Eu TR-FRET binding assay). Here is the method:
A. Procedure for Human sTNFR1-Peptide Displacement Assay
The affinity was determined using LanthaScreen Eu-based time-resolved fluorescence resonance energy transfer (TR-FRET)-based binding assay.
A TR-FRET assay measuring the displacement of biotinylated peptide SEQ ID NO. 1 from human soluble TNFR1 (sTNFR1) in a pre-formed complex by a macrocyclic peptide yields the affinity (Kd^app) of the cyclic peptide for sTNFR1. The reagents for the assay include: the C′-terminally 6His-tagged sTNFR1 (residues 1-211) protein purified from a Sf21 baculovirus expression system, the biotin-tagged B0372 peptide described in section “Preparation of Final Compounds”, part E, the LanthaScreen™ anti-His Tag Europium donor (Life Technologies Corporation (San Diego, CA), cat. #PV5597), and a streptavidin-conjugate Alexa Fluor™ 647 acceptor (Invitrogen (Waltham, MA), cat. #S32357). Time-resolved TR-FRET is achieved when sTNFR1 is bound to biotinylated peptide SEQ ID NO. 1 through coupling of the donor and acceptor FRET pair.
100 nM biotinylated peptide SEQ ID NO. […] 100 nM biotinylated peptide SEQ ID NO. 1 was chosen as it reflects the ˜Kd for this complex. After 30 min at ambient temperature, each test peptide (2 mM stock in DMSO) is titrated in a 20 point, ˜3-fold discrete dose-response using an acoustic-dispense liquid handler. Specifically, 80 nL of peptide/DMSO is transferred into a ProxiPlate-384 Plus 384-well assay plate (PerkinElmer, cat. #6008289). To this plate, 8 μL of the previously formed sTNFR 1-biotinylated peptide SEQ ID NO. 1 complex is added and allowed to reach binding equilibrium with the test peptide at ambient temperature for 90 min.
The TR-FRET signal is measured with the following EnVision® settings: excitation laser at 337 nm; emission1=615 nm, emission2=665 nm, LANCE/DELFIA dichroic mirror, delay time=[…]. The signal of each well is determined as the ratio of the emission at 665 nm to that at 615 nm. Percent displacement is determined by normalization to control wells containing DMSO (0%) or a saturating concentration of a displaceable peptide (100%). The %-effect as a function of peptide concentration is fit to a five-parameter logistic fit based on the Morrison equation to account for tight binding kinetics.

By Kd is commonly meant the constant that tells how readily two partners part at equilibrium. One may read the IC50 as the concentration that inhibits the measured activity by half. A high value points to a need for much substance.

Take `CCCCC[C@@H]1NC(=O)[C@@H]2CC[C@@H](C2)NC(=O)[C@H]([C@@H](C)c2c[nH]c3c(OC)cccc23)NC(=O)CN(C)C(=O)[C@H](Cc2ccc(C(N)=O)cc2)NC(=O)[C@H](Cc2ccc(C(N)=O)cc2)NC(=O)[C@](C)(CO)NC(=O)[C@H](Cc2c[nH]c3c(C#N)cccc23)NC(=O)[C@H](Cc2ccc(C(=O)O)cc2)NC(=O)[C@H](CC(N)=O)NC(=O)[C@H]2C[C@H](O)CN2C(=O)[C@H](Cc2c[nH]c3ccccc23)NC(=O)[C@H]([C@@H](C)O)NC(=O)[C@H]([C@@H](C)c2ccncc2)NC1=O` [SEQ ID NO. 234] (cyclo([Ahp(2)][4Pal(3S-Me)]TW[dHyp]N[Phe(4-COOH)][Trp(7-CN)][αMeS][Phe(4-CONH2)][Phe(4-CONH2)][Sar][Trp(βS-Me,7-OMe)][X1])): the Kd stood at 0.24 nM. `CCCC[C@@H]1NC(=O)[C@@H]2CC[C@@H](C2)NC(=O)[C@H]([C@@H](C)c2c[nH]c3c(OC)cccc23)NC(=O)CN(C)C(=O)[C@H](Cc2ccc(O)cc2)NC(=O)[C@H](Cc2ccc(C(=O)O)cc2)NC(=O)[C@](C)(CO)NC(=O)[C@H](Cc2c[nH]c3c(Cl)cccc23)NC(=O)[C@H](Cc2ccncc2)NC(=O)[C@H](CC(N)=O)NC(=O)[C@H]2[C@@H](O)CCN2C(=O)[C@H](Cc2c[nH]c3ccccc23)NC(=O)[C@@H]2CNCCN2C(=O)[C@H](Cc2ccncc2)NC1=O` [SEQ ID NO. 192] (cyclo([4Pal][Trp(7-Cl)][αMeS][Phe(4-COOH)]Y[Sar][Trp(βS-Me,7-OMe)][X1][Nle][4Pal][Pip(4-aza)]W[dPro(3S-OH)]N)) gave a Kd of 0.24 nM. Compound `CCCC[C@@H]1NC(=O)[C@H](CC)SC[C@@H](C(N)=O)NC(=O)[C@H]([C@@H](C)c2c[nH]c3c(OC)cccc23)NC(=O)CN(C)C(=O)[C@H](Cc2ccc(O)cc2)NC(=O)[C@H](Cc2ccc(C(N)=O)cc2)NC(=O)[C@](C)(CO)NC(=O)[C@H](Cc2c[nH]c3c(Cl)cccc23)NC(=O)[C@H](Cc2ccncc2)NC(=O)[C@H](CC(N)=O)NC(=O)[C@H](CCC(=O)O)N(C)C(=O)[C@H](Cc2c[nH]c3ccccc23)NC(=O)[C@@H]2CSCCN2C(=O)[C@H](Cc2ccncc2)NC1=O` [SEQ ID NO. 246] ([Nle][4Pal][X68]W[NMeE]N[4Pal][Trp(7-Cl)][αMeS][Phe(4-CONH2)]Y[Sar][Trp(βS-Me,7-OMe)]C-NH2; linker N-14 via X7) yielded a 50% inhibitory concentration (IC50) of 1.15 nM. As for `CCCCC[C@@H]1NC(=O)[C@@H]2CC[C@@H](C2)NC(=O)[C@H]([C@@H](C)c2c[nH]c3c(OC)cccc23)NC(=O)CN(C)C(=O)[C@H](Cc2cn(CC(=O)O)c3ccccc23)NC(=O)[C@H](Cc2ccc(C(N)=O)cc2)NC(=O)[C@](C)(CO)NC(=O)[C@H](Cc2c[nH]c3c(C#N)cccc23)NC(=O)[C@H](Cc2ccc(C(=O)O)cc2)NC(=O)[C@H](CC(N)=O)NC(=O)[C@H]2C[C@H](N)CN2C(=O)[C@H](Cc2c[nH]c3ccccc23)NC(=O)[C@@H]2CC[C@@H](O)CN2C(=O)[C@H](Cc2ccncc2)NC1=O` [SEQ ID NO. 150] (cyclo([4Pal][Pip(5R-OH)]W[dPro(4S-NH2)]N[Phe(4-COOH)][Trp(7-CN)][αMeS][Phe(4-CONH2)][Trp(1-CH2COOH)][Sar][Trp(βS-Me,7-OMe)][X1][Ahp(2)])), the affinity, expressed as Kd, was 0.23 nM. `CCCC[C@@H]1NC(=O)[C@@H]2CC[C@@H](C2)NC(=O)[C@H]([C@@H](C)c2c[nH]c3c(OC)cccc23)NC(=O)CN(C)C(=O)[C@H](Cc2ccc(O)cc2)NC(=O)[C@H](Cc2ccc(C(N)=O)cc2)NC(=O)[C@](C)(CO)NC(=O)[C@H](Cc2c[nH]c3c(Cl)cccc23)NC(=O)[C@H](Cc2ccc(NC(N)=O)cc2)NC(=O)[C@H](CC(N)=O)NC(=O)[C@H](CCC(=O)O)N(C)C(=O)[C@H](Cc2c[nH]c3ccccc23)NC(=O)[C@@H]2CC[C@@H](O)CN2C(=O)[C@H](Cc2ccncc2)NC1=O` [SEQ ID NO. 165] (cyclo([4Pal][Pip(5R-OH)]W[NMeE]N[Phe(4-NHCONH2)][Trp(7-Cl)][αMeS][Phe(4-CONH2)]Y[Sar][Trp(βS-Me,7-OMe)][X1][Nle])) displayed a Kd of 0.18 nM.
